Tests used:
PDL = experiment: MTT assay, normal fibroblast cell line (PDL); type: cell-based, human; conditions: 72 h; for IC50: PDL normal fibroblasts
Description: To understand the selectivity of compounds, a normal fibroblast cell line (human periodontal ligament-PDL) is also included in this IC50 determination.
(§1) The cancer cell lines MCF7 and T47D (breast cancer cells), HSC3 (head and neck cancer cells), and RKO (colorectal cancer cells) were kindly provided by Prof. Stephan Feller, Institute of Molecular Medicine, Martin Luther University, Halle, Germany. The human fibroblast (PDL) cell line was obtained as a kind gift from Prof. Khaled Al-Qaoud (Yarmouk University, Irbid, Jordan). All cell lines were cultured in Dulbecco’s Modified Eagle’s Medium (DMEM) supplemented with 10% fetal bovine serum, 100 µg/mL streptomycin, 100 U/mL penicillin, and 1% non-essential amino acid at 37 °C with 5% CO2 in a humidified CO2 incubator. The cell cultures were grown to confluence, and the medium was changed two times weekly.
(§2) The MTT (3-[4,5-dimethylthiazol-2-yl]-2,5-diphenyl tetrazolium bromide) assay was used to investigate cell viability and to calculate the half-maximal inhibitory concentration (IC50) values of the compounds 6(a–k) including standard reference cisplatin. Furthermore, […] stock solutions of the compounds were prepared in DMSO where all compounds were completely soluble. Cells were seeded in 96-well tissue culture plates at a density of 6,000 cells/well for MCF7, T47D, and PDL cells and at a density of 4000 cells/well for RKO and HSC3 cells. After 24 h of seeding, investigated cells were treated with three concentrations (1, 10, and 100 µm) of the compounds for 72 h. At the end of the treatment time, the supernatant medium was aspirated, and 50 µL of fresh DMEM containing MTT (0.5 mg/mL) was added to each well. Cells were then incubated at 37 °C for 2–4 h. After that, the medium was completely removed, and 50 µL of DMSO was added to each well to dissolve the precipitated formazan crystals formed by viable cells. Cell viability, represented by the absorbance of the formazan solution, was measured at 570 nm using the Synergy HTX Multimode Reader (BioTek, Vermont, USA), and cell viability was determined as described in the literature. For each concentration, the relative cell viability was calculated as follows: relative cell viability = (mean treatment absorbance/mean control absorbance) × 100%. Assays were performed in triplicate on three independent experiments. […] IC50 values were then calculated using the four-parameter logistic function in the SigmaPlot software (version 12.5) and presented as the mean ± SD from three independent experiments.

MCF7 = experiment: MTT assay, MCF7 breast cancer cells; type: cell-based; conditions: for IC50: MCF7, 72 h; for inhibition at 1 µM / inhibition at 10 µM / inhibition at 100 µM / % cell growth inhibition: 72 h; for inhibition at 1 µM / inhibition at 10 µM / inhibition at 100 µM: read-out: % cell growth inhibition
Description: (§3) An MTT assay was used to evaluate the final compounds’ anticancer activity against MCF7 and T47D (breast cancer cells), HSC3 (head and neck cancer cells), and RKO (colorectal cancer cells) cell lines, using cisplatin as a reference standard. Table 1 presents the percentage growth inhibition of all compounds against the various cancer cell lines.
as §1, §2

T47D = experiment: MTT assay, T47D breast cancer cells; type: cell-based; conditions: 72 h; for inhibition at 1 µM / inhibition at 10 µM / inhibition at 100 µM: read-out: % cell growth inhibition
Description: as §3, §1, §2

RKO = experiment: MTT assay, RKO colorectal cancer cells; type: cell-based; conditions: 72 h; for inhibition at 1 µM / inhibition at 10 µM / inhibition at 100 µM: read-out: % cell growth inhibition
Description: as §3, §1, §2

HSC3 = experiment: MTT assay, HSC3 head and neck cancer cells; type: cell-based; conditions: for inhibition at 1 µM / inhibition at 10 µM / inhibition at 100 µM: HSC-3, 72 h, read-out: % cell growth inhibition; for inhibition at 1 µM / inhibition at 10 µM / inhibition at 100 µM / % cell growth inhibition: 72 h; for IC50: HSC3, 72 h
Description: as §3, §1, §2

SMILES	inhibition at 1 µM (MCF7; Homo sapiens, MCF7, 1 µM) [%]	inhibition at 10 µM (MCF7; Homo sapiens, MCF7, 10 µM) [%]	inhibition at 100 µM (MCF7; Homo sapiens, MCF7, 100 µM) [%]	inhibition at 1 µM (T47D; Homo sapiens, 1 µM) [%]	inhibition at 10 µM (T47D; Homo sapiens, 10 µM) [%]	inhibition at 100 µM (T47D; Homo sapiens, 100 µM) [%]	inhibition at 1 µM (RKO; Homo sapiens, 1 µM) [%]	inhibition at 10 µM (RKO; Homo sapiens, 10 µM) [%]	inhibition at 100 µM (RKO; Homo sapiens, 100 µM) [%]	inhibition at 1 µM (HSC3; Homo sapiens, HSC3, 1 µM) [%]	inhibition at 10 µM (HSC3; Homo sapiens, HSC3, 10 µM) [%]	inhibition at 100 µM (HSC3; Homo sapiens, HSC3, 100 µM) [%]	further results
CCOC(=O)c1c(NC(=O)CN2CCCCC2)sc2c1CCN(C(=O)OCC)C2 [6a]	2.96	39.5	91.6	9.31	38.6	88.1	5.71	53	93.5	4.26	59.8	92.6	IC50 (PDL; Homo sapiens, Fibroblast): > 100 µM; toxicity to normal fibroblast cell lines, PDL (PDL; PDL): no toxicity; IC50 (MCF7; Homo sapiens): 73.7 ± 4.3 µM; % cell growth inhibition (MCF7; MCF7, 1 µM): weak inhibition; IC50 (T47D; Homo sapiens): 97.2 ± 4.4 µM; IC50 (RKO; Homo sapiens): 24.4 ± 7.2 µM; IC50 (HSC3; Homo sapiens, HSC-3): 14.5 ± 4.3 µM
CCOC(=O)c1c(NC(=O)CN2CCC(C)CC2)sc2c1CCN(C(=O)OCC)C2 [6b, Diethyl 2-(2-(4-methylpiperidin-1-yl)acetamido)-4,7-dihydrothieno[2,3-c]pyridine-3,6-(5H)-dicarboxylate]	2.74	29.7	83.2	7.79	24.4	82	10.7	39.3	94.1	4.06	38	79.4	
CCOC(=O)c1c(NC(=O)CN2CCNCC2)sc2c1CCN(C(=O)OCC)C2 [6c, Diethyl 2-(2-(piperazin-1-yl)acetamido)-4,7-dihydrothieno[2,3-c]pyridine-3,6(5H)-dicarboxylate]	0	22.1	81	3.7	28.1	80.8	17.1	30.9	93.6	6.71	30	83.4	
CCOC(=O)c1c(NC(=O)CN2CCN(C)CC2)sc2c1CCN(C(=O)OCC)C2 [6d, Diethyl 2-(2-(4-methylpiperazin-1-yl)acetamido)-4,7-dihydrothieno[2,3-c]pyridine-3,6-(5H)-dicarboxylate]	1.42	3.7	79.3	0	2.54	82.1	0	0	94.4	0	0	83.9	
CCOC(=O)c1c(NC(=O)CN2CCN(CC)CC2)sc2c1CCN(C(=O)OCC)C2 [6e, Diethyl 2-(2-(4-ethylpiperazin-1-yl)acetamido)-4,7-dihydrothieno[2,3-c]pyridine-3,6(5H)-dicarboxylate]	4.67	11.7	74.2	5.23	3.12	79.4	6.17	7.24	90.1	3.26	5.51	75.8	
CCOC(=O)c1c(NC(=O)CN2CCN(C(=O)OC(C)(C)C)CC2)sc2c1CCN(C(=O)OCC)C2 [6f, Diethyl 2-(2-(4-(tert-butoxycarbonyl)piperazin-1-yl)acetamido)-4,7-dihydrothieno[2,3-c]-pyridine-3,6(5H)-dicarboxylate]	7.34	10	39	7.62	16.2	34.1	6.11	17.2	47.6	0	16.8	45.8	% cell growth inhibition (MCF7; MCF7, 100 µM): weaker inhibition
CCOC(=O)c1c(NC(=O)CN2CCN(c3ccccc3OC)CC2)sc2c1CCN(C(=O)OCC)C2 [6g, Diethyl 2-(2-(4-(2-methoxyphenyl)piperazin-1-yl)acetamido)-4,7-dihydrothieno[2,3-c]-pyridine-3,6(5H)-dicarboxylate]	3.4	6.36	57.3	0	14.2	59.9	0.53	14.6	68.4	0	15.9	56.9	% cell growth inhibition (MCF7; MCF7, 100 µM): weaker inhibition
CCOC(=O)c1c(NC(=O)CN2CCOCC2)sc2c1CCN(C(=O)OCC)C2 [6h, Diethyl 2-(2-morpholinoacetamido)-4,7-dihydrothieno[2,3-c]pyridine-3,6(5H)-di-carboxylate]	0	20.3	77.2	0	17.8	78.2	8.76	19.1	93.3	0	9.88	77.9	
CCOC(=O)c1c(NC(=O)CN2CCN(C(=O)c3ccco3)CC2)sc2c1CCN(C(=O)OCC)C2 [6j, Diethyl 2-(2-(4-(furan-2-carbonyl)piperazin-1-yl)acetamido)-4,7-dihydrothieno[2,3-c]-pyridine-3,6(5H)-dicarboxylate]	0	16.2	76.5	0	1.19	76	0	17.3	96.8	0	29.9	86.4	
CCOC(=O)c1c(NC(=O)CN2CCN(c3ncccn3)CC2)sc2c1CCN(C(=O)OCC)C2 [6k, Diethyl 2-(2-(4-(pyrimidin-2-yl)piperazin-1-yl)acetamido)-4,7-dihydrothieno[2,3-c]-pyridine-3,6(5H)-dicarboxylate]	0	12.2	80	0	10.1	76.5	0	22.2	96.1	0	11.3	86.2	
N.N.[Cl][Pt][Cl] [Cisplatin, reference compound]													IC50 (PDL): 15.5 ± 2.1 µM; % cell growth inhibition (MCF7; MCF7, 1 µM): 11.23%; % cell growth inhibition (MCF7; MCF7, 10 µM): 57.32%; % cell growth inhibition (MCF7; MCF7, 100 µM): 97.41%; IC50 (MCF7): 5.8 ± 0.9 µM; % cell growth inhibition (T47D; 1 µM): 29.09%; % cell growth inhibition (T47D; 10 µM): 89.65%; % cell growth inhibition (T47D; 100 µM): 98.20%; IC50 (T47D): 2.6 ± 0.6 µM; % cell growth inhibition (RKO; 1 µM): 46.06%; % cell growth inhibition (RKO; 10 µM): 92.77%; % cell growth inhibition (RKO; 100 µM): 95.04%; IC50 (RKO): 1.7 ± 0.4 µM; % cell growth inhibition (HSC3; HSC3, 1 µM): 29.33%; % cell growth inhibition (HSC3; HSC3, 10 µM): 84.74%; % cell growth inhibition (HSC3; HSC3, 100 µM): 97.87%; IC50 (HSC3): 2.7 ± 0.2 µM
